Test results: PMC8744835, “Sterically Hindered Quaternary Phosphonium Salts (QPSs): Antimicrobial Activity and Hemolytic and Cytotoxic Properties” (International Journal of Molecular Sciences, 2021)

Tests used:
[1] = test system: Bacillus cereus ATCC 10702 NCTC 8035; experiment: Antimicrobial activity, serial dilution technique in Mueller–Hinton Broth 2; assay type: cell-based; settings: average of three ± SD, - means non-active; for MBC: read-out: Minimum Bactericidal and Fungicidal Concentration (MBC, MFC), Bc
Procedure: (§1) The synthesized compounds were tested for antimicrobial activity against a number of Gram-positive bacteria, Staphylococcus aureus (Sa), Bacillus cereus (Bc) and Enterococcus faecalis (Ef), and Gram-negative bacteria, Escherichia coli (Ec) and Pseudomonas aeruginosa (Pa), including the methicillin-resistant strains S. aureus MRSA-1 (resistant to fluoroquinolones and beta-lactams) and MRSA-2 (resistant to beta-lactams). The methicillin-resistant strains S. aureus were transferred by the Republican Clinical Hospital of the Republic of Tatarstan (Kazan). The fungicidal activity against Candida albicans (Ca) and Trichophyton mentagrophytes var. gypseum (Tm) was studied. These pathogens were chosen because they are the most widespread in the food industry and the healthcare system.
(§2) The antimicrobial activity of the QPSs was determined using the serial dilution technique in Mueller–Hinton Broth 2. The cultures used for testing included the Gram-positive bacteria Staphylococcus aureus ATCC 6538P FDA 209P, Enterococcus faecalis ATCC 2921 and Bacillus cereus ATCC 10702 NCTC 8035, the Gram-negative bacteria Escherichia coli ATCC 25922 and Pseudomonas aeruginosa ATCC 9027, and the fungi Trichophyton mentagrophytes var. gypseum 1773 and Candida albicans ATCC 10231; methicillin-resistant strains of S. aureus MRSA were obtained from hospital patients with chronic tonsillitis (MRSA-1) and sinusitis (MRSA-2) in the Republican Clinical Hospital (Kazan, Russia). […] The bacterial load was 3.0 × 10^5 cfu/mL. The results were recorded every 24 h for 5 days. The cultures were incubated at 37 °C. The experiment was repeated three times. […] The minimum inhibitory concentration (MIC) was defined as the minimum concentration of a compound that inhibits the growth of the corresponding test micro-organism. The growth of bacteria as well as the absence of growth due to the bacteriostatic action of a compound was recorded.

[2] = test system: Enterococcus faecalis ATCC 2921; experiment: as above; assay type: cell-based; settings: average of three ± SD, - means non-active; for MIC: read-out: Minimum Inhibitory Concentration (MIC), Ef
Procedure: as §1, §2

[3] = test system: Escherichia coli ATCC 25922; experiment: as above; assay type: cell-based; settings: average of three ± SD, - means non-active; for MIC: Escherichia coli, ATCC25922, Ec, read-out: Minimum Inhibitory Concentration (MIC), Ec
Procedure: as §1, §2

[4] = test system: Pseudomonas aeruginosa ATCC 9027; experiment: as above; assay type: cell-based; settings: average of three ± SD, - means non-active; for MBC / MIC: Pseudomonas aeruginosa, ATCC9027, Pa; for MBC: read-out: Minimum Bactericidal and Fungicidal Concentration (MBC, MFC), Pa; for MIC: read-out: Minimum Inhibitory Concentration (MIC), Pa
Procedure: as §1, §2

[5] = test system: Staphylococcus aureus ATCC 6538P FDA 209P; experiment: as above; assay type: cell-based; settings: average of three ± SD, - means non-active; for MBC / MIC: Staphylococcus aureus, Sa; for MBC: read-out: Minimum Bactericidal and Fungicidal Concentration (MBC, MFC), Sa; for MIC: read-out: Minimum Inhibitory Concentration (MIC), Sa
Procedure: as §1, §2

[6] = test system: methicillin-resistant S. aureus MRSA-1; experiment: as above; assay type: cell-based, Staphylococcus aureus; settings: - means non-active; for MIC / Minimum Inhibitory Concentration (MIC), MRSA-1: MRSA-1 (resistant to fluoroquinolones and beta-lactams); for MIC: read-out: Minimum Inhibitory Concentration (MIC), MRSA-1
Procedure: as §1, §2

[7] = test system: methicillin-resistant S. aureus MRSA-2; experiment: as above; assay type: cell-based, Staphylococcus aureus; settings: - means non-active; for Minimum Inhibitory Concentration (MIC), MRSA-2 / MIC: MRSA-2 (resistant to beta-lactams); for MBC / MIC: Staphylococcus aureus, MRSA; for MBC / Minimum Bactericidal and Fungicidal Concentration (MBC, MFC), MRSA-2: MRSA-2; for MBC: read-out: Minimum Bactericidal and Fungicidal Concentration (MBC, MFC), MRSA-2; for MIC: read-out: Minimum Inhibitory Concentration (MIC), MRSA-2
Procedure: as §1, §2

[8] = test system: Candida albicans ATCC 10231; experiment: Fungicidal activity, serial dilution technique; assay type: cell-based; settings: average of three ± SD, - means non-active; for MBC / MIC: Candida albicans, ATCC10231, Ca; for MBC: read-out: Minimum Bactericidal and Fungicidal Concentration (MBC, MFC), Ca; for MIC: read-out: Minimum Inhibitory Concentration (MIC), Ca
Procedure: as §1
(§3) The antimicrobial activity of the QPSs was determined using the serial dilution technique in Mueller–Hinton Broth 2. The cultures used for testing included the Gram-positive bacteria Staphylococcus aureus ATCC 6538P FDA 209P, Enterococcus faecalis ATCC 2921 and Bacillus cereus ATCC 10702 NCTC 8035, the Gram-negative bacteria Escherichia coli ATCC 25922 and Pseudomonas aeruginosa ATCC 9027, and the fungi Trichophyton mentagrophytes var. gypseum 1773 and Candida albicans ATCC 10231; methicillin-resistant strains of S. aureus MRSA were obtained from hospital patients with chronic tonsillitis (MRSA-1) and sinusitis (MRSA-2) in the Republican Clinical Hospital (Kazan, Russia). Ciprofloxacin and ketoconazole were purchased from Sigma-Aldrich. The bacterial load was 3.0 × 10^5 cfu/mL. The results were recorded every 24 h for 5 days. The cultures were incubated at 37 °C. The experiment was repeated three times. […] The minimum inhibitory concentration (MIC) was defined as the minimum concentration of a compound that inhibits the growth of the corresponding test micro-organism. The growth of bacteria as well as the absence of growth due to the bacteriostatic action of a compound was recorded.

[9] = test system: Trichophyton mentagrophytes var. gypseum 1773; experiment: Fungicidal activity, serial dilution technique; assay type: cell-based; settings: Tm, average of three ± SD, - means non-active
Procedure: as §1, §3

[10] = test system: Escherichia coli ATCC 25922; experiment: Antimicrobial activity, serial dilution technique in Mueller–Hinton Broth 2; assay type: cell-based; settings: average of three ± SD, - means non-active; for MBC: Escherichia coli, ATCC25922, Ec, read-out: Minimum Bactericidal and Fungicidal Concentration (MBC, MFC), Ec
[11] = Enterococcus faecalis, ATCC2921, Ef

Minimum Inhibitory Concentration (MIC), Bc [1]	Minimum Inhibitory Concentration (MIC), Pa [4]	MIC ([6]; Staphylococcus aureus, MRSA)	Minimum Inhibitory Concentration (MIC), MRSA-2 [7]	Minimum Inhibitory Concentration (MIC), Ef [2]	Minimum Inhibitory Concentration (MIC), Sa [5]	Minimum Inhibitory Concentration (MIC), Ec [3]	Minimum Inhibitory Concentration (MIC), MRSA-1 [6]	Compound	MBC ([1]; Bacillus cereus, Bc)	MBC [4]	MBC [5]	Minimum Bactericidal and Fungicidal Concentration (MBC, MFC), MRSA-1 ([6]; MRSA-1)	Minimum Inhibitory Concentration (MIC), Ca [8]	Minimum Bactericidal and Fungicidal Concentration (MBC, MFC), Tm [9]	Minimum Inhibitory Concentration (MIC), Tm [9]	Minimum Bactericidal and Fungicidal Concentration (MBC, MFC), Ef [2]	Minimum Bactericidal and Fungicidal Concentration (MBC, MFC), MRSA-2 [7]	Minimum Bactericidal and Fungicidal Concentration (MBC, MFC), Ec [10]	Minimum Bactericidal and Fungicidal Concentration (MBC, MFC), Sa [5]	Minimum Bactericidal and Fungicidal Concentration (MBC, MFC), Ca [8]	further results
15.6 ± 1.3 µg/mL	31.3 ± 2.4 µg/mL	7.8 ± 0.6 µg/mL	1.9 ± 0.1 µg/mL	–	–	–	–	CCCCCCCCCCCCCCCCCCCC[P+](C(C)(C)C)(C(C)(C)C)C(C)(C)C [Compound 20a]	31.3 ± 2.6 µg/mL	125 ± 11 µg/mL	3.9 ± 0.2 µg/mL	31.3 ± 2.7 µg/mL	31.3 ± 2.5 µg/mL	31.3 ± 2.5 µg/mL	31.3 ± 2.3 µg/mL	–	–	–	–	–	MBC ([2]; Enterococcus faecalis, ATCC2921, Ef, read-out: Minimum Bactericidal and Fungicidal Concentration (MBC, MFC), Ef): 7.8 ± 0.6 µg/mL; MIC [2, 11]: 3.9 ± 0.2 µg/mL; MIC [3]: 62.5 ± 5.5 µg/mL; MIC [5]: 3.9 ± 0.2 µg/mL; MBC [7]: 15.6 ± 1.2 µg/mL; MBC [8]: 62.5 ± 5.7 µg/mL; MBC [10]: 62.5 ± 5.5 µg/mL
7.8 ± 0.6 µg/mL	–	0.5 ± 0.03 µg/mL	–	1.9 ± 0.1 µg/mL	1.9 ± 0.2 µg/mL	–	–	CCCCCCCCCCCCCC[P+](C(C)(C)C)(C(C)(C)C)C(C)(C)C [Compound 14a]	15.6 ± 1.3 µg/mL	125 ± 11 µg/mL	1.9 ± 0.1 µg/mL	7.8 ± 0.6 µg/mL	–	125 ± 10 µg/mL	125 ± 11 µg/mL	3.9 ± 0.2 µg/mL	62.5 ± 5.3 µg/mL	1.9 ± 0.1 µg/mL	–	–	MIC [3]: 1.9 ± 0.1 µg/mL; MIC [4]: 15.6 ± 1.1 µg/mL; MIC [7]: 0.5 ± 0.04 µg/mL; MBC [8]: 15.6 ± 1.2 µg/mL; MIC [8]: 7.8 ± 0.6 µg/mL
0.9 ± 0.07 µg/mL	7.8 ± 0.6 µg/mL	–	0.3 ± 0.02 µg/mL	0.9 ± 0.08 µg/mL	0.1 ± 0.008 µg/mL	1.9 ± 0.1 µg/mL	0.3 ± 0.01 µg/mL	CCCCCCCCCCCCCC[P+](C(C)(C)C)(C(C)(C)C)C(C)(C)C [Compound 14b]	–	–	–	0.5 ± 0.03 µg/mL	3.9 ± 0.3 µg/mL	15.6 ± 1.3 µg/mL	15.6 ± 1.3 µg/mL	1.9 ± 0.1 µg/mL	0.5 ± 0.03 µg/mL	3.9 ± 0.2 µg/mL	1.9 ± 0.1 µg/mL	15.6 ± 1.2 µg/mL	Minimum Bactericidal and Fungicidal Concentration (MBC, MFC), Bc [1]: 15.6 ± 1.2 µg/mL; Minimum Bactericidal and Fungicidal Concentration (MBC, MFC), Pa [4]: 62.5 ± 5.4 µg/mL
31.3 ± 2.2 µg/mL	15.6 ± 1.3 µg/mL	–	3.9 ± 0.2 µg/mL	1.9 ± 0.1 µg/mL	1.9 ± 0.1 µg/mL	15.6 ± 1.3 µg/mL	7.8 ± 0.6 µg/mL	CCCCCCCCCCCCCCCCCC[P+](C(C)(C)C)(C(C)(C)C)C(C)(C)C [Compound 18b]	–	–	–	15.6 ± 1.2 µg/mL	7.8 ± 0.7 µg/mL	250 ± 19 µg/mL	250 ± 19 µg/mL	3.9 ± 0.2 µg/mL	3.9 ± 0.3 µg/mL	62.5 ± 5.4 µg/mL	3.9 ± 0.2 µg/mL	15.6 ± 1.2 µg/mL	Minimum Bactericidal and Fungicidal Concentration (MBC, MFC), Bc [1]: 125 ± 11 µg/mL; Minimum Bactericidal and Fungicidal Concentration (MBC, MFC), Pa [4]: 31.3 ± 2.5 µg/mL
62.5 ± 5.5 µg/mL	125 ± 11 µg/mL	–	7.8 ± 0.6 µg/mL	7.8 ± 0.6 µg/mL	3.9 ± 0.2 µg/mL	62.5 ± 5.7 µg/mL	15.6 ± 1.3 µg/mL	CCCCCCCCCCCCCCCCCCCC[P+](C(C)(C)C)(C(C)(C)C)C(C)(C)C [Compound 20b]	–	–	–	15.6 ± 1.2 µg/mL	15.6 ± 1.3 µg/mL	250 ± 18 µg/mL	250 ± 18 µg/mL	15.6 ± 1.3 µg/mL	7.8 ± 0.7 µg/mL	62.5 ± 5.5 µg/mL	3.9 ± 0.3 µg/mL	31.3 ± 2.1 µg/mL	–
–	–	0.5 ± 0.02 µg/mL	–	–	–	1.9 ± 0.1 µg/mL	–	CCCCCCCCCCCCCCC[P+](C(C)(C)C)(C(C)(C)C)C(C)(C)C [Compound 15a]	15.6 ± 1.3 µg/mL	7.8 ± 0.6 µg/mL	0.5 ± 0.03 µg/mL	–	–	–	–	1.9 ± 0.1 µg/mL	–	–	–	3.9 ± 0.2 µg/mL	MIC ([1]; Bacillus cereus, Bc, read-out: Minimum Inhibitory Concentration (MIC), Bc): 0.5 ± 0.03 µg/mL; MIC [2, 11]: 0.5 ± 0.03 µg/mL; MIC [4]: 7.8 ± 0.7 µg/mL; MIC [5]: 0.2 ± 0.01 µg/mL; MBC ([6]; Staphylococcus aureus, MRSA, MRSA-1, read-out: Minimum Bactericidal and Fungicidal Concentration (MBC, MFC), MRSA-1): 0.5 ± 0.04 µg/mL; MIC [7]: 0.5 ± 0.04 µg/mL; MBC [7]: 0.5 ± 0.03 µg/mL; MIC [8]: 1.9 ± 0.1 µg/mL; MBC ([9]; Trichophyton mentagrophytes, read-out: Minimum Bactericidal and Fungicidal Concentration (MBC, MFC), Tm): 62.5 ± 5.7 µg/mL; MIC ([9]; Trichophyton mentagrophytes, read-out: Minimum Inhibitory Concentration (MIC), Tm): 62.5 ± 5.3 µg/mL; MBC [10]: 3.9 ± 0.2 µg/mL
